Active and inactive are the calls of the source.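 The calls were made as follows: active = minimum cell viability of 80% or lower across the dose range, counted as toxic; inactive = minimum cell viability above 80%.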
Assay: MAGI-CCR5 and HeLa-R5-16 cytotoxicity, dose response, cytotoxicity control for HIV-1 fusion inhibitor project, cell-based, MAGI and MAGI-HeLa co-culture (AID 2286);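 also: cells exposed to compound for at least 64 h before ATP readout; 100% = median of DMSO vehicle wells with no ATP signal meaning 0%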
Settings: MAGI-CCR5 cells viability, CellTiter-Glo ATP luminescence; for minimum viability: measured here: MAGI minimum viability across doses
[1] = MAGI-HeLa co-culture viability, at 50 µM, stronger effect = lower value
[2] = at 3.13 µM, stronger effect = lower value
[3] = at 12.5 µM, stronger effect = lower value

Compound | viability [1] | viability (at 50 µM (top of the series)) | minimum viability (at 50 µM, stronger effect = lower value) | also measured
Cc1ccc(-c2cc(C(=O)Nc3ccc(S(=O)(=O)Nc4onc(C)c4C)cc3)c3ccccc3n2)cc1 | 89.9% | 98.7% (inactive) | – | minimum viability [2]: 86%
CS(=O)(=O)C1=NSC2=NC(=O)/C(=C\c3ccc(OS(=O)(=O)c4ccccc4)cc3)C(=N)N21 | 89.2% | – | – | viability (at 25 µM (top of the series)): 83.8% (inactive); minimum viability [3]: 83.1%
O=C1NN(c2ccc(Cl)cc2)C(=O)/C1=C\c1ccc(-c2cccc(C(=O)O)c2)o1 | 81.8% | 83.3% (inactive) | 83.3% | –
CC(C)c1ccc(OCC(=O)Nc2cccc(C(=O)Nc3ccccc3C(=O)O)c2)cc1 | 96.4% | 84% (inactive) | 84% | –
CCc1ccc(N=C2NC(=O)/C(=C/c3cc(Br)c(OCC(=O)O)c(OC)c3)S2)cc1 | 94.3% | 82.9% (inactive) | 82.9% | –
O=C(O)CN1C(=O)/C(=C\c2cc(Br)ccc2OCc2ccc(F)cc2)SC1=S | 91.5% | 97.7% (inactive) | 97.7% | –
Cc1ccccc1N=C1NC(=O)/C(=C/c2cccn2-c2cccc(C(=O)O)c2)S1 | 90% | 94.2% (inactive) | – | minimum viability [3]: 86.3%
O=C(CCN1C(=O)/C(=C/c2cccs2)SC1=S)Nc1ccc(C(=O)O)c(O)c1 | 104% | – | 66% | –
CN1C(=O)/C(=C/c2ccc(C(=O)Nc3ccc(O)cc3C(=O)O)cc2)SC1=S | 104% | 91% (inactive) | – | minimum viability [3]: 87.9%
COc1ccccc1NS(=O)(=O)c1cccc(-n2c(O)c(C=Nc3ccccc3C(=O)O)c3ccccc3c2=O)c1 | 111% | – | 51.4% | –
O=C(O)c1[nH]c2ccccc2c1C(c1cc(Br)ccc1O)c1c(C(=O)O)[nH]c2ccccc12 | 82% | 85.4% (inactive) | 85.4% | –
O=C(NCc1ccccc1)c1ccc2c(=O)[nH]c3c(C(=O)NCC4CCCO4)sc(=S)n3c2c1 (stereo not drawn) | 106% | 86.3% (inactive) | 86.3% | –
O=C1NC(=S)N(c2ccc(F)cc2)C(=O)/C1=C\c1ccoc1 | 99.5% | 84.8% (inactive) | 84.8% | –
O=C(O)c1[nH]c2ccccc2c1C(c1ccccc1)c1c(C(=O)O)[nH]c2ccccc12 | 93.2% | 86% (inactive) | – | minimum viability [3]: 81.8%
CCCCCC#CCC#CCC#CCC#CCCCC(=O)O | 119% | 94.8% (inactive) | – | minimum viability [2]: 89.9%
COc1cc(/C=C2\C(=N)N3N=C(S(C)(=O)=O)SC3=NC2=O)cc(OC)c1OCCOc1cccc(C)c1 | 120% | 82.5% (inactive) | 82.5% | –
COc1ccc(-c2coc3c(C)c4oc(=O)c(CCC(=O)O)c(C)c4cc23)cc1 | 91.9% | – | 47.8% | –
O=C(NCCc1ccccc1)c1ccc2c(=O)[nH]c3c(C(=O)NCC4CCCO4)sc(=S)n3c2c1 (stereo not drawn) | 115% | – | 70.9% | –
CCOc1cc(/C=C2/C(=N)N3C(=NC2=O)SN=C3S(=O)(=O)CC)ccc1OC(=O)c1ccco1 | 108% | 112% (inactive) | – | minimum viability (at 0.1 µM, stronger effect = lower value): 106%
CC(/C=C1\SC(=S)N(c2ccc(C(=O)O)cc2)C1=O)=C\c1ccccc1 | 88% | 99.7% (inactive) | – | minimum viability (at 0.39 µM, stronger effect = lower value): 96.6%
CC1(C)CC(=O)C2=C(C1)c1c(ccc3ccccc13)NC2c1cc([N+](=O)[O-])cc([N+](=O)[O-])c1O (stereo not drawn) | 107% | – | 56% | –
CCOC(=O)C1=C(C)N=c2s/c(=C\c3ccc(OCC(=O)O)cc3)c(=O)n2C1c1ccc(OC(C)C)cc1 (stereo not drawn) | 105% | – | 65.8% | –
O=C(O)c1ccc(Cl)c(S(=O)(=O)Nc2ccccc2C(=O)Nc2ccc(Cl)cc2)c1 | 92.9% | 82.6% (inactive) | 82.6% | –

— PubChem BioAssay AID2286 (Southern Research Specialized Biocontainment Screening …, 2010)
